Measured values taken from patent publication US20250066369A1, “BICYCLIC PHTHALAZIN-1(2H)-ONE DERIVATIVES AND RELATED USES” (NodThera Limited, priority 2022, published 2025).

These molecules were tested on IL-1β release upon NLRP3 activation in peripheral blood mononuclear cells (PBMC) (assay: PBMC IC50 determination assay: inhibition of IL-1β release upon NLRP3 activation). Details: PBMC primed with LPS 3 h, compound 30 min, stimulated with ATP (5 mM) or nigericin (10 μM) 1 h; IL-1β by ELISA (Protocol A) or HTRF (Protocol B).
Format: cell-based
Protocol: PBMC IC50 determination assay. The compounds of the present disclosure were tested for their inhibitory activity against IL-1β release upon NLRP3 activation in peripheral blood mononuclear cells (PBMC).
Protocol A. PBMC were isolated from buffy coats by density gradient centrifugation on Histopaque-1077 (Sigma, cat no. 10771). Isolated cells were seeded into the wells of a 96-well plate and incubated for 3 h with lipopolysaccharide (LPS). Following medium exchange, the compounds of the present disclosure were added (a single compound per well) and the cells were incubated for 30 min. Next, the cells were stimulated either with ATP (5 mM) or nigericin (10 μM) for 1 h and the cell culture media from the wells were collected for further analysis.
The release of IL-1β into the media was determined by a quantitative detection of IL-1β in the media using an IL-1β enzyme-linked immunosorbent assay (ELISA) Ready-SET-Go!, eBioscience cat. No. 88-7261-88. Briefly, in a first step, high affinity binding plates (Corning, Costar 9018 or NUNC Maxisorp Cat No. 44-2404) were coated overnight at 4° C. with specific capture antibody included in the kit (anti-human IL-1β ref. 14-7018-68). Subsequently, plates were blocked with blocking buffer for 1 h at room temperature (rt) and after washing with a buffer (PBS with 0.05% Tween-20) incubated with protein standard and culture media. After 2 h of incubation at rt, plates were washed and incubated with biotinylated detection antibody included in the kit (anti-human IL-1β Biotin ref 33-7110-68) for 1 h at rt. Plates were washed and incubated with HRP-streptavidin for 30 min at rt and washed again. The signal was developed after addition of 3,3′,5,5′-tetramethylbenzidine-peroxidase (TMB) until colour appeared and the reaction was stopped by 2 M H2SO4. A microplate spectrophotometer (BioTek) was used to detect signals with 450 nm. The detection range of IL-1β ELISA was […].
Protocol B. PBMC were isolated from buffy coats by density gradient centrifugation on Histopaque-1077 (Sigma, cat no. 10771). Isolated cells were seeded into the wells (280,000 cells/well) of a 96-well plate and incubated for 3 h with lipopolysaccharide (LPS, 1 μg/mL diluted 1000× from a 1 mg/mL stock solution). The compounds of the present disclosure were added (a single compound per well) and the cells were incubated for 30 min. Next, the cells were stimulated with ATP (5 mM final concentration diluted 20× from a 100 mM stock solution) for 1 h and the cell culture media from the wells were collected for further analysis.
The release of IL-1β into the media was determined by quantitative detection of IL-1β in the media using HTRF®, CisBio cat. No. 62HIL1BPEH. Briefly, cell culture supernatant were dispensed directly into the assay plate containing antibodies labelled with the HTRF® donor and acceptor. A microplate spectrophotometer (BMG) was used to detect signals at 655 nm and 620 nm. The detection range of IL-1β HTRF® was 39-6500 μg/mL.

With `CC(C)c1nn(C2(C(=O)Nc3ncccn3)CC2)c(=O)c2cn(C3CC3)nc12` [Compound 66, 1-(2-Cyclopropyl-7-isopropyl-4-oxo-2,4-dihydro-5H-pyrazolo[3,4-d]pyridazin-5-yl)-N-(pyrimidin-2-yl)cyclopropane-1-carboxamide] the IC50 was 3000 to 10000 nM.
`CC(C)c1nn(C2(C(=O)Nc3ncccn3)CC2)c(=O)c2cn(C3CC3)nc12` [Compound 70, 1-(2-Cyclopropyl-7-isopropyl-4-oxo-2,4-dihydro-5H-pyrazolo[3,4-d]pyridazin-5-yl)-N-(pyrimidin-2-yl)cyclopropane-1-carboxamide] was tested, and the IC50 was 10000 to 50000 nM.

Same assay, conditions: PBMC, PBMC primed with LPS 3 h, compound 30 min, stimulated with ATP (5 mM) or nigericin (10 μM) 1 h; IL-1β by ELISA (Protocol A) or HTRF (Protocol B)

First: CCc1nn(CC(=O)Nc2ncccn2)c(=O)c2ccc(C3CC3)nc12 [Compound 32, 2-(2-Cyclopropyl-8-ethyl-5-oxo-pyrido[2,3-d]pyridazin-6-yl)-N-pyrimidin-2-yl-acetamide]
Second: Cc1nn(CC(=O)Nc2ncccn2)c(=O)c2ccc(C3CC3)nc12 [Compound 34, 2-(2-Cyclopropyl-8-methyl-5-oxo-pyrido[2,3-d]pyridazin-6-yl)-N-pyrimidin-2-yl-acetamide]
The IC50 of the first is lower: 100 to 1000 nM for the first, 1000 to 3000 nM for the second.

`CCc1nn(CC(=O)Nc2ncc(F)cn2)c(=O)c2ccc(C3CC3)nc12` [Compound 33, 2-(2-Cyclopropyl-8-ethyl-5-oxo-pyrido[2,3-d]pyridazin-6-yl)-N-(5-fluoropyrimidin-2-yl)acetamide] and `Cc1nn(CC(=O)Nc2ncc(F)cn2)c(=O)c2ccc(C3CC3)nc12` [Compound 35, 2-(2-Cyclopropyl-8-methyl-5-oxo-pyrido[2,3-d]pyridazin-6-yl)-N-(5-fluoropyrimidin-2yl)acetamide] fall in the same range of IC50: 100 to 1000 nM for the first, 100 to 1000 nM for the second.

First: CCc1nc2c(C(C)C)nn(CC(=O)Nc3ncc(F)cn3)c(=O)c2s1 [Compound 36]
Second: CC(C)c1nn(CC(=O)Nc2ncc(F)cn2)c(=O)c2sc(Cl)nc12 [Compound 61]
The IC50 of the first is lower: ≤ 100 nM for the first, 1000 to 3000 nM for the second. The first is the more potent here.

First: CCn1cc2c(=O)n(CC(=O)Nc3ncccn3)nc(CF)c2n1 [Compound 40, 2-(2-Ethyl-7-(fluoromethyl)-4-oxo-2,4-dihydro-5H-pyrazolo[3,4-d]pyridazin-5-yl)-N-(pyrimidin-2-yl)acetamide]
Second: CC(C)c1nn(CC(=O)Nc2ncccn2)c(=O)c2cn(C3CC3)nc12 [Compound 65, 2-(2-Cyclopropyl-7-isopropyl-4-oxo-2,4-dihydro-5H-pyrazolo[3,4-d]pyridazin-5-yl)-N-(pyrimidin-2-yl)acetamide]
The IC50 of the first is higher: 1000 to 3000 nM for the first, 100 to 1000 nM for the second.

`CCc1ccc2c(=O)n(CC(=O)Nc3ncccn3)nc(C(C)C)c2n1` [Compound 42] and `CCc1ccc2c(=O)n(CC(=O)Nc3ncc(F)cn3)nc(C(C)C)c2n1` [Compound 43] fall in the same range of IC50: 100 to 1000 nM for the first, 100 to 1000 nM for the second.

First: Cc1nn(CC(=O)N[C@@H]2CCCN(C)C2)c(=O)c2ccc(C3CC3)nc12 [Compound 46]
Second: Cc1nn(CC(=O)N[C@@H]2CCCN(C3CCC3)C2)c(=O)c2ccc(C3CC3)nc12 [Compound 47]
The IC50 of the first is higher: 1000 to 3000 nM for the first, 100 to 1000 nM for the second. The second is the more potent here.

Compared with `CC(C)c1nn(C2(C(=O)Nc3ncccn3)CC2)c(=O)c2cn(C(C)C)nc12` [Compound 50, 1-(2,7-Diisopropyl-4-oxo-2,4-dihydro-5H-pyrazolo[3,4-d]pyridazin-5-yl)-N-(pyrimidin-2-yl)cyclopropane-1-carboxamide], `CC(C)c1nn(C2(C(=O)Nc3ncc(F)cn3)CC2)c(=O)c2cn(C(C)C)nc12` [Compound 51, 1-(2,7-Diisopropyl-4-oxo-2,4-dihydro-5H-pyrazolo[3,4-d]pyridazin-5-yl)-N-(5-fluoropyrimidin-2-yl)cyclopropane-1-carboxamide] is lower in IC50: 1000 to 3000 nM for the first, 100 to 1000 nM for the second.

`CCc1cc2c(=O)n(CC(=O)Nc3ncccn3)nc(CC)c2o1` [Compound 54, 2-(2,7-Diethyl-4-oxofuro[2,3-d]pyridazin-5(4H)-yl)-N-(pyrimidin-2-yl)acetamide] and `CCc1cc2c(=O)n(CC(=O)Nc3ncc(F)cn3)nc(CC)c2o1` [Compound 55, 2-(2,7-Diethyl-4-oxofuro[2,3-d]pyridazin-5(4H)-yl)-N-(5-fluoropyrimidin-2-yl)acetamide] fall in the same range of IC50: 100 to 1000 nM for the first, 100 to 1000 nM for the second.

`CC(C)c1nn(CC(=O)Nc2ncc(F)cn2)c(=O)c2cc(Cl)sc12` [Compound 59, 2-(2-Chloro-7-isopropyl-4-oxothieno[2,3-d]pyridazin-5(4H)-yl)-N-(5-fluoropyrimidin-2-yl)acetamide] and `CC(C)c1nn(CC(=O)Nc2ncc(F)cn2)c(=O)c2sc(Cl)cc12` [Compound 60, 2-(2-Chloro-4-isopropyl-7-oxothieno[2,3-d]pyridazin-6(7H)-yl)-N-(5-fluoropyrimidin-2-yl)acetamide] fall in the same range of IC50: 100 to 1000 nM for the first, 100 to 1000 nM for the second.

`CC(C)c1nn(CC(=O)Nc2ncccn2)c(=O)c2cc(Br)oc12` [Compound 62, 2-(2-Bromo-7-isopropyl-4-oxofuro[2,3-d]pyridazin-5(4H)-yl)-N-(pyrimidin-2-yl)acetamide] and `CC(C)c1nn(CC(=O)Nc2ncccn2)c(=O)c2sc(Br)cc12` [Compound 64, 2-(2-Bromo-4-isopropyl-7-oxothieno[2,3-d]pyridazin-6(7H)-yl)-N-(pyrimidin-2-yl)acetamide] fall in the same range of IC50: 100 to 1000 nM for the first, 100 to 1000 nM for the second.

`Cc1cnc(NC(=O)Cn2nc(C(C)C)c3nn(C(C)C)cc3c2=O)nc1` [Compound 63, 2-(2,7-Diisopropyl-4-oxo-pyrazolo[3,4-d]pyridazin-5-yl)-N-(5-methylpyrimidin-2-yl)acetamide] and `CC(C)c1nn(CC(=O)Nc2ncc(Cl)cn2)c(=O)c2cn(C(C)C)nc12` [Compound 67, N-(5-Chloropyrimidin-2-yl)-2-(2,7-diisopropyl-4-oxo-2,4-dihydro-5H-pyrazolo[3,4-d]pyridazin-5-yl)acetamide] fall in the same range of IC50: 100 to 1000 nM for the first, 100 to 1000 nM for the second.

First: CC(C)c1nn(CC(=O)N[C@H]2C[C@@](C)(O)C2)c(=O)c2cn(C(C)C)nc12 [Compound 68, 2-(2,7-Diisopropyl-4-oxo-2,4-dihydro-5H-pyrazolo[3,4-d]pyridazin-5-yl)-N-((cis)-3-hydroxy-3-methylcyclobutyl)acetamide]
Second: CC(C)c1nn(CC(=O)Nc2ncco2)c(=O)c2cn(C(C)C)nc12 [Compound 72, 2-(2,7-Diisopropyl-4-oxo-pyrazolo[3,4-d]pyridazin-5-yl)-N-oxazol-2-yl-acetamide]
The IC50 of the first is higher: 1000 to 3000 nM for the first, 100 to 1000 nM for the second.

First: CCc1cc2c(C(C)C)nn(CC(=O)N[C@H]3C[C@@](C)(O)C3)c(=O)c2s1 [Compound 69, 2-(2-Ethyl-4-isopropyl-7-oxothieno[2,3-d]pyridazin-6(7H)-yl)-N-((cis)-3-hydroxy-3-methylcyclobutyl)acetamide]
Second: CC(C)c1nn(CC(=O)N[C@H]2C[C@@](C)(O)C2)c(=O)c2sc(Br)cc12 [Compound 74, 2-(2-Bromo-4-isopropyl-7-oxothieno[2,3-d]pyridazin-6(7H)-yl)-N-(cis-3-hydroxy-3-methylcyclobutyl)acetamide]
The IC50 of the first is lower: 100 to 1000 nM for the first, 1000 to 3000 nM for the second.

First: CC(C)c1nn(CC(=O)Nc2ncccn2)c(=O)c2cn(C3CCC3)nc12 [Compound 71, 2-(2-Cyclobutyl-7-isopropyl-4-oxo-2,4-dihydro-5H-pyrazolo[3,4-d]pyridazin-5-yl)-N-(pyrimidin-2-yl)acetamide]
Second: CC(C)c1nn(CC(=O)Nc2ncco2)c(=O)c2cn(C3CC3)nc12 [Compound 73, 2-(2-Cyclopropyl-7-isopropyl-4-oxo-2,4-dihydro-5H-pyrazolo[3,4-d]pyridazin-5-yl)-N-(oxazol-2-yl)acetamide]
The IC50 of the first is higher: 1000 to 3000 nM for the first, 100 to 1000 nM for the second.

`CC(C)c1nn(CC(=O)Nc2ncccn2)c(=O)c2sc(C3CC3)cc12` [Compound 75, 2-(2-Cyclopropyl-4-isopropyl-7-oxothieno[2,3-d]pyridazin-6(7H)-yl)-N-(pyrimidin-2-yl)acetamide] and `CC(C)c1nn(CC(=O)Nc2ncco2)c(=O)c2sc(C3CC3)cc12` [Compound 76, 2-(2-Cyclopropyl-4-isopropyl-7-oxothieno[2,3-d]pyridazin-6(7H)-yl)-N-(oxazol-2-yl)acetamide] fall in the same range of IC50: 100 to 1000 nM for the first, 100 to 1000 nM for the second.

In the case of `CCNc1cc2c(C(C)C)nn(CC(=O)Nc3ncccn3)c(=O)c2s1` [Compound 78, 2-(2-(Ethylamino)-4-isopropyl-7-oxothieno[2,3-d]pyridazin-6(7H)-yl)-N-(pyrimidin-2-yl)acetamide], the IC50 is reported as ≤ 100 nM.
